Test results reported in US8993596B2, “4-(azacycloalkyl)benzene-1,3-diol compounds as tyrosinase inhibitors, process for the preparation thereof and use thereof in human medicine and in cosmetics” (Galderma Research & Development, priority 2008, dated 2015).

Assays:
[1] = system: MNT1 human melanoma cells; test: Cell toxicity (3H-leucine incorporation) in the melanogenesis assay; assay type: cell-based; conditions: MNT-1, 24 h at 37° C.
Protocol: (§1) The inhibition of melanogenesis is measured in MNT1 human melanoma cells according to a protocol adapted from Reigner et al., Cell Mol Biol (1999) 45: 969-980. The assay is based on the concomitant incorporation of 2 radiolabelled tracers: ^14C-thiouracil is incorporated into the neosynthesized melanin and reflects melanogenesis, whereas ^3H-leucine is incorporated into the proteins and reflects cell viability and, consequently, the toxicity of the compounds tested.
(§2) The MNT1 cells are seeded into 96-well plates in the presence of the test compounds and of the radioisotopes. After incubation for 24 h at 37° C., the cells are washed and the amount of the 2 radioisotopes is measured. The test compounds are evaluated in terms of dose-response so as to calculate an IC50 for inhibition of melanogenesis on the basis of the ^14C incorporation which is standardized through the ^3H incorporation. An IC50 for cell toxicity is also calculated on the basis of the ^3H incorporation.

[2] = system: MNT1 human melanoma cells; test: Melanogenesis inhibition assay (14C-thiouracil incorporation); assay type: cell-based; conditions: MNT-1, 24 h at 37° C., 14C incorporation standardized through 3H incorporation
Protocol: as §1, §2

tyrosinase = tyrosinase (Mus musculus (Mouse), UniProt P11344); test: Tyrosinase activity inhibition assay (B16F1 cell lysate); assay type: biochemical, murine; conditions: lysate of B16F1 cells, L-tyrosine substrate, MBTH, reading at 520 nm after 6 hours at 37° C.; read-out: Tyrosine hydroxylase/ Dopa oxidase IC50
Sequence of tyrosinase (P11344 19-533): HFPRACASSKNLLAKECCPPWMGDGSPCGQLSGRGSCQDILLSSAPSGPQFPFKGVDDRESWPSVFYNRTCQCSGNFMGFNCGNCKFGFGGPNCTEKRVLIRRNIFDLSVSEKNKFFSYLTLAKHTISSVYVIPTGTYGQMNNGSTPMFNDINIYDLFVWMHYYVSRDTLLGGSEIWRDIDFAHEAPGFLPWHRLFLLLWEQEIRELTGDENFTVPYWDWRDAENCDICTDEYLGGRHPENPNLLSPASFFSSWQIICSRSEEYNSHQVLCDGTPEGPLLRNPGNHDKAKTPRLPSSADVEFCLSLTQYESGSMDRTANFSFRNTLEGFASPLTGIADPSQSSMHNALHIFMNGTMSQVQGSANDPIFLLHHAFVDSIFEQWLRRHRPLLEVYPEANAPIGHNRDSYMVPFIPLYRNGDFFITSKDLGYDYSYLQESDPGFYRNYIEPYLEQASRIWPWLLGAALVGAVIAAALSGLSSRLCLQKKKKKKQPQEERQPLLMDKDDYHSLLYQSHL
Protocol: The activity of the inhibitors is measured using a lysate of B16F1 cells (murine melanoma line). In the presence of the L-tyrosine substrate, the tyrosinase present in these cells catalyses the hydroxylation of L-tyrosine to give L-DOPA and then the oxidation of the L-DOPA to give dopaquinone. In the presence of MBTH (3-methyl-2-benzothiazolinone hydrazone), the dopaquinone is trapped so as to form a pink complex which absorbs at 520 nm.
The B16F1 cells are cultured in DMEM medium+10% foetal calf serum+10^−9 M α-MSH for 4 days at 37° C. under 7% CO2. They are treated with trypsin, washed in PBS, counted and pelleted. The pellet is taken up at 10^7 cells/ml in lysis buffer (10 mM sodium phosphate, pH 6.8-1% Igepal) and the suspension is treated with ultrasound for 10 seconds. After centrifugation for 30 minutes at 4000 rpm, the supernatant obtained constitutes the cell lysate used as tyrosinase source in the enzymatic assay.
The assays are carried out in duplicate in 384-well plates in a total volume of 50 μl. […]
The plate is incubated at 37° C. and a spectrophotometric reading is carried out at 520 nm after 6 hours of incubation. In order to avoid any possible absorption of the products, the system uses corrected absorbance (absorbance at time 6 h—absorbance at time zero). […]

Compound	IC50 [1]	IC50 [2]	IC50 (tyrosinase)
C[C@H](NC(=O)N1CCC(c2ccc(O)cc2O)CC1)c1ccccc1 [Compound 24, 4-(2,4-dihydroxyphenyl)piperidine-1-carboxylic acid ((S)-1-phenylethyl)amide]	> 999000 nM	300 nM	150 nM
O=C([C@@H](O)c1ccccc1)N1CCC(c2ccc(O)cc2O)CC1 [Compound 48, (S)-1-[4-(2,4-dihydroxyphenyl)piperidin-1-yl]-2-hydroxy-2-phenylethanone]	> 999000 nM	700 nM	200 nM
CCCCc1ccc(O)cc1O [4-Butylresorcinol (Rucinol), 4-Butylresorcinol, reference compound]	55000 nM	15000 nM	–
